The text below walks through data of EP2752191A1, “Compositions and methods using hdm2 antagonist and mek inhibitor” (SANOFI, priority 2013, dated 2014).

One assay has as its system 217 kinases. Particulars: tested at 10 µM; cited from earlier work.
The next assay deals with 90 non-kinase targets. Particulars: tested at 10 µM; cited from earlier work.
Assay [1] has as its system panel of twenty cell lines. The assay is described as follows: HDM2-p53 inhibitor / MEK inhibitor combination screen, ATPLite growth inhibition 72 h, Loewe synergy (Example 1). As to conditions: at an FDR < 5% in some cell lines (FIG. 1). It is filed as cell-based. The procedure:
(§1) The combinations of HDM2-p53 inhibitor and MEK inhibitor were examined in a panel of twenty cell lines (Table 2).
(§2) A 36-point combination dose response matrix over a treatment time of seventy-two hours was used. The method by which this screen was performed is described below.
(§3) Cells were thawed from a liquid nitrogen preserved state. Once cells had been expanded and divided at their expected doubling times, cells were seeded in complete media (Table 3) at 100 cells per well in black 1536 tissue culture treated plates. Assay plates were centrifuged for 2 min at 335 x g, incubated at room temperature for 20 min, and incubated at 37° C for 24 hours before treatment.
ATP levels were used as a measure of cell number (cell growth). At the time of treatment, ATP levels were measured in an untreated set of assay plates (Tzero plates). ATP levels were measured by adding ATPLite (Perkin Elmer) according to manufacturer's instructions. The Tzero plates were read using ultra-sensitive luminescence on Envision Plate Readers. Assay plates receiving treatment were incubated with compound for 72 h at 37° C with 5% CO2. After 72 h, plates were developed for endpoint analysis using ATPLite.
Assay plates were accepted for analysis if they passed the following quality control standards: relative luciferase values were consistent throughout the entire experiment, Z' factor scores were greater than 0.6, untreated/vehicle controls behaved consistently on the plate. The calculation for synergy score is provided below.
Growth Inhibition (GI) was used as a measure of cell viability. As described above, ATP levels were measured at the time of dosing (T0) and after 72 hours (T72). The effect of vehicle alone on cell viability was determined by measuring ATP levels at T0 and 72 hours after treatment of cells with vehicle alone (T72).
GI was calculated by applying the following test and equation: If T < V0 :100*(1-T-V0/V0) [formula] If T ≥ V0 :100*(1-T-V0/V-V0) [formula]
Where T is the signal measure for a test article, V is the vehicle-treated control measure, and V0 is the vehicle control measure at time zero. This formula is derived from the Growth Inhibition calculation used in the National Cancer Institute's NCI-60 high throughput screen, as described on the world wide web at dtp.nci.nih.gov/branches/btb/ivclsp.html. A GI reading of 0% represents no growth inhibition-that is, cells treated with compound had similar levels of ATP as cells treated with vehicle and measured at 72 hours. A GI of 100% represents complete growth inhibition-that is, cells treated with compound had similar levels of ATP as cells treated with vehicle and measured at T0. A GI of 100% where cell numbers have not increased during the treatment period is indicative of a cytostatic effect for compounds reaching a plateau at this effect level. A GI of 200% represents complete death of all cells in the culture well which is indicative of an apoptotic effect.
For each cell line, the dose-response curve was measured with each HDM2-p53 antagonist and each MEK inhibitor as single agents and in pair wise combinations. Using the potency values from the single agent dose-response curves, the compounds were assigned to different groups of similar potency. Multiple doses above and below the EC50 of a given HDM2-p53 antagonist or MEK inhibitor were measured.
In each well of a plate, ATP levels were measured by […] assay as described above. ATP levels are proportional to the number of remaining live cells. […]
(In general: In ATP-based viability assays light output follows the ATP content of the culture.)

In another assay the test system is C32 cells. Kind of assay: ATPLite growth inhibition 72 h, dose matrix (Example 1). In kind it is cell-based. As to conditions: single agents, or Compound (1) with Compound (6) present at 1.1 uM; 72 h (FIG. 2). The procedure:
as §1, §2, §3
(§4) ATP levels were used as a measure of cell number (cell growth). At the time of treatment, ATP levels were measured in an untreated set of assay plates (Tzero plates). ATP levels were measured by adding ATPLite (Perkin Elmer) according to manufacturer's instructions. The Tzero plates were read using ultra-sensitive luminescence on Envision Plate Readers. […]
(§5) Growth Inhibition (GI) was used as a measure of cell viability. As described above, ATP levels were measured at the time of dosing (T0) and after 72 hours (T72). The effect of vehicle alone on cell viability was determined by measuring ATP levels at T0 and 72 hours after treatment of cells with vehicle alone (T72). […]

The next assay concerns MV4-11 cells. The assay is described as above. It is filed as cell-based. As to conditions: single agents, or Compound (1) with Compound (6) present at 3.3 uM; 72 h (FIG. 3). The procedure:
as §1, §2, §3, §4, §5

As to `O=C(NC[C@H](O)CO)c1ccncc1Nc1ccc(I)cc1F` [Compound (4), N-((S)-2,3-dihydroxypropyl)-3-(2-fluoro-4-iodo-phenylamino)isonicotinamide], the “activity against 217 kinases” value in the assay on 217 kinases is listed as “no activity”. Besides, in the assay on 90 non-kinase targets, the “activity against 90 non-kinase targets” value was “no activity”.
In the case of `Cn1cnc2c(F)c(Nc3ccc(Br)cc3Cl)c(C(=O)NOCCO)cc21` [Compound (6)], the “Loewe synergy with both Compound (1) and Compound (2)” value (shortened to “Loewe synergy with both Compound”) in assay [1] was “statistically significant Loewe synergy”. Further, the “effect on C32 cells (growth inhibition)” value with C32 cells is recorded as “cytostasis”. Moreover, the “effect on MV4-11 cells (growth inhibition)” value in the assay on MV4-11 cells is reported as “cytostasis”.
Turning to `O=C(NOCC(O)CO)c1ccc(F)c(F)c1Nc1ccc(I)cc1F` (stereo not drawn) [Compound (7), N-(2,3-dihydroxy-propoxy)-3,4-difluoro-2-(2-fluoro-4-iodo-phenylamino)-benzamide], in assay [1], the “Loewe synergy with both Compound” value is reported as “statistically significant Loewe synergy”.
`Cc1cnc(Nc2ccc(F)cc2Cl)nc1-c1c[nH]c(C(=O)N[C@H](CO)c2cccc(Cl)c2)c1` [Compound (8), 4-[2-(2-chloro-4-fluorophenylamino)-5-methylpyrimidin-4-yl]-N-[1(S)-(3-chlorophenyl)-2-hydroxyethyl]-1H-pyrrole-2-carboxamide]: the “Loewe synergy with both Compound” value in assay [1] is “statistically significant Loewe synergy”.
Take `CNS(=O)(=O)Nc1nccc(Cc2c(C)c3ccc(Oc4ncccn4)cc3oc2=O)c1F` [Compound (9), N-[3-fluoro-4-[4-methyl-2-oxo-7-(pyrimidin-2-yloxy)-2H-1-benzopyran-3-ylmethyl]pyridin-2-yl]-N'-methylsulfamide]: the “Loewe synergy with both Compound” value in assay [1] is “statistically significant Loewe synergy”.
`COc1cc2c(Nc3ccc(Oc4ccccc4)cc3)c(C#N)cnc2cc1OCCCN1CCOCC1` [Compound (10), 6-methoxy-7-[3-(4-morpholinyl)propoxy]-4-(4-phenoxyphenylamino)quinoline-3-carbonitrile]: the “Loewe synergy with both Compound” value in assay [1] was “statistically significant Loewe synergy”.
